# Results as given in ChEMBL document CHEMBL6103541, “Ringing medicinal chemistry: The importance of 3-membered rings in drug discovery” (Bioorg Med Chem, 2024).
# *1 amine or outer side, *2 acyl side, *3 side chain or, on linkers, in order; H or OH if unused. Where a SMILES comes first, the peptide text is derived from it. [ ]: non-standard residue; d: D form. The star is where a group is joined. X1 = CCCC(N[*:1])C(=O)C(=O)[*:2]; Chg = N[C@H](C(=O)O)C1CCCCC1; Phg = N[C@H](C(=O)O)c1ccccc1; Boc = CC(C)(C)OC(=O)*
# Assays:
# [1] = target: T1, NS3 protease (Hepacivirus C, UniProt C1KIQ2); test: Binding affinity to HCV NS3 protease assessed as inhibition constant; parameters: species or system Hepacivirus hominis
# [2] = target: Human immunodeficiency virus type 1 reverse transcriptase (Human immunodeficiency virus 1, UniProt Q72547); test: Inhibition of HIV-1 reverse transcriptase
# [3] = target: T1, NS3 protease; test: Inhibition of Hepatitis C virus genotype 1b NS3 protease; parameters: species or system Hepacivirus hominis
# [4] = target: T1, NS3 protease; test: Binding affinity to Hepatitis C virus genotype 1a NS3 protease assessed as inhibition constant; parameters: species or system Hepacivirus hominis
# [5] = target: T1, NS3 protease; test: Binding affinity to Hepatitis C virus genotype 1b NS3 protease assessed as inhibition constant; parameters: species or system Hepacivirus hominis
# [6] = tested on: SK-BR-3; test: Antiproliferative activity against human SK-BR-3 cells; type: functional, cell-based
# [7] = tested on: Staphylococcus aureus; test: In vivo antibacterial activity against Staphylococcus aureus infected mouse model assessed as curative dose; type: functional
# [8] = tested on: Staphylococcus aureus; test: In vivo antibacterial activity against streptomycin-resistant Staphylococcus aureus infected mouse model assessed as curative dose; type: functional
# [9] = tested on: Staphylococcus aureus; test: In vivo antibacterial activity against erythromycin-resistant Staphylococcus aureus infected mouse model assessed as curative dose; type: functional
# [10] = tested on: HPAC; test: Antiproliferative activity against human HPAC cells assessed as inhibition of cell growth measured after 72 hrs by MTT assay; type: functional, cell-based
# [11] = tested on: Capan-2; test: Antiproliferative activity against human Capan-2 cells assessed as reduction in cell viability incubated for 72 hrs by MTT assay; type: functional, cell-based; conditions: Capan-2, 72 h
# [12] = tested on: Hepatitis C virus; test: Antiviral activity against Hepatitis C virus infected in human Huh7.5 cells assessed as reduction in viral replication; type: functional, Hepacivirus hominis
# [13] = Half life in Wistar rat at 10 mg/kg, iv measured for 24 hrs by LC-MS/MS analysis; type: ADME, organism-based; conditions: in vivo
# [14] = Volume of distribution at steady state in Wistar rat at 10 mg/kg, iv measured for 24 hrs by LC-MS/MS analysis; type: ADME, organism-based; conditions: in vivo
# [15] = tested on: BT-549; test: Cytotoxicity against human BT-549 cells assessed as inhibition of cell growth incubated for 72 hrs by MTT assay; type: functional, cell-based; conditions: BT-549, 72 h
# [16] = tested on: MDA-MB-231; test: Antiproliferative activity against human MDA-MB-231 cells assessed as reduction in cell viability incubated for 72 hrs by MTT assay; type: functional, cell-based; conditions: MDA-MB-231, 72 h
# [17] = Inhibition of 20s constitutive proteasome beta-5c (unknown origin); parameters: species or system Homo sapiens
# [18] = tested on: Staphylococcus epidermidis; test: microbe, parasite or virus in culture
# Description: Antibacterial activity against Staphylococcus epidermidis
# [19] = tested on: Staphylococcus saprophyticus; test: microbe, parasite or virus in culture
# Description: Antibacterial activity against Staphylococcus saprophyticus
# [20] = tested on: Staphylococcus aureus; test: microbe, parasite or virus in culture
# Description: Antibacterial activity against Methicillin-resistant staphylococcus aureus
# [21] = tested on: MCF7; test: Antiproliferative activity against human MCF7 cells assessed as reduction in cell viability incubated for 48 hrs by MTT assay; type: functional, cell-based; conditions: MCF7, 48 h
# [22] = tested on: SK-N-FI; test: Antiproliferative activity against human SK-N-FI cells; type: functional, cell-based
# [23] = target: Vascular endothelial growth factor receptor 1 (Homo sapiens, UniProt P17948); test: Inhibition of VEGFR1 (unknown origin)
# [24] = target: Vascular endothelial growth factor receptor 3 (Homo sapiens, UniProt P35916); test: Inhibition of VEGFR3 (unknown origin)
# [25] = target: Fibroblast growth factor receptor 1 (Homo sapiens, UniProt P11362); test: Inhibition of FGFR1 (unknown origin)
# [26] = target: Fibroblast growth factor receptor 3 (Homo sapiens, UniProt P22607); test: Inhibition of FGFR3 (unknown origin)
# [27] = target: Fibroblast growth factor receptor 4 (Homo sapiens, UniProt P22455); test: Inhibition of FGFR4 (unknown origin)
# [28] = Inhibition of PDGFR (unknown origin); parameters: species or system Homo sapiens
# [29] = tested on: SCaBER; test: Antiproliferative activity against human SCaBER cells; type: functional, cell-based
# [30] = tested on: J82; test: Antiproliferative activity against human J82 cells; type: functional, cell-based
# [31] = Inhibition of PK1 (unknown origin); parameters: species or system Homo sapiens
# [32] = tested on: Staphylococcus aureus; test: Antibacterial activity against Staphylococcus aureus; type: functional
# [33] = tested on: Thermus thermophilus; test: Antibacterial activity against Thermus thermophilus; type: functional, organism-based
# [34] = tested on: Staphylococcus aureus; test: Antibacterial activity against Staphylococcus aureus ATCC 25923 assessed as bacterial growth inhibition measured after 18 hrs by CLSI protocol based two-fold serial microdilution method; type: functional
# [35] = tested on: Streptococcus pneumoniae; test: Antibacterial activity against Streptococcus pneumoniae ATCC 49619 assessed as inhibition of bacterial growth incubated for 24 hrs by CLSI protocol based broth micro-dilution method; type: functional
# [36] = tested on: Pseudomonas aeruginosa; test: Antibacterial activity against Pseudomonas aeruginosa ATCC 15442 assessed as reduction in bacterial cell growth incubated for 18 hrs by two fold serial microdilution method; type: functional
# [37] = tested on: Escherichia coli; test: Antibacterial activity against Escherichia coli assessed as reduction in bacterial growth by broth microdilution method; type: functional
# [38] = target: Tubulin; test: Inhibition of tubulin polymerization (unknown origin); type: protein-complex assay, Homo sapiens
# [39] = Inhibition of LPS-induced NFkappaB activation in mouse RAW264.7 cells assessed as inhibition of IKKalpha phosphorylation level incubated for 1 hrs by Western blot analysis; type: cell-based; conditions: RAW264.7, 1 h
# T1 sequence (C1KIQ2 whole entry): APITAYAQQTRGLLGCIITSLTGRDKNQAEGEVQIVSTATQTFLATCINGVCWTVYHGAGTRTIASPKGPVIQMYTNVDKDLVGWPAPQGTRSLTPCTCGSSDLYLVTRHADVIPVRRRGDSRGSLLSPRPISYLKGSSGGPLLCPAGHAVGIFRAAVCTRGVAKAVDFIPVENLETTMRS
# Fibroblast growth factor receptor 1, sequence (P11362 whole entry): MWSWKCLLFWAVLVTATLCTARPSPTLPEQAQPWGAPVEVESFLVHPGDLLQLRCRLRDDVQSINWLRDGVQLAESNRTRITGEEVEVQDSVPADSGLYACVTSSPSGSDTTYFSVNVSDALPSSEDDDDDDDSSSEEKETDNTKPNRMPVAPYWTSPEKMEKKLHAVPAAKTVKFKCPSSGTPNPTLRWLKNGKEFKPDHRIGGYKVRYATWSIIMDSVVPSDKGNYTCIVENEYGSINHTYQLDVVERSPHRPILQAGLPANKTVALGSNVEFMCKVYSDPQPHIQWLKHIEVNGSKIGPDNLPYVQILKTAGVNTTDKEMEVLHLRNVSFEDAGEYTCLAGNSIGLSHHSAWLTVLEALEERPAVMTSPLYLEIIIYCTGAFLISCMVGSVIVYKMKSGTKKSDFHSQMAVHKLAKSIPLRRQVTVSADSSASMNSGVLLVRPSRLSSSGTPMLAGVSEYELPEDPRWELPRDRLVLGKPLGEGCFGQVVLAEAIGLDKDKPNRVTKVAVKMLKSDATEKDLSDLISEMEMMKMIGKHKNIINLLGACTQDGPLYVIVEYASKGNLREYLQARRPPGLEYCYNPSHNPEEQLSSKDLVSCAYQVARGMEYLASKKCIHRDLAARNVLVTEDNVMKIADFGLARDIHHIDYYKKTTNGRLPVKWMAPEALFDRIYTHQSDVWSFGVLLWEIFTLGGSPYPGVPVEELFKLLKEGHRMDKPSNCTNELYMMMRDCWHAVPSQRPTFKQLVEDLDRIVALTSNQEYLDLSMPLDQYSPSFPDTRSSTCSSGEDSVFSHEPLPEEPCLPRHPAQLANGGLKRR
# Fibroblast growth factor receptor 3, sequence (P22607 whole entry): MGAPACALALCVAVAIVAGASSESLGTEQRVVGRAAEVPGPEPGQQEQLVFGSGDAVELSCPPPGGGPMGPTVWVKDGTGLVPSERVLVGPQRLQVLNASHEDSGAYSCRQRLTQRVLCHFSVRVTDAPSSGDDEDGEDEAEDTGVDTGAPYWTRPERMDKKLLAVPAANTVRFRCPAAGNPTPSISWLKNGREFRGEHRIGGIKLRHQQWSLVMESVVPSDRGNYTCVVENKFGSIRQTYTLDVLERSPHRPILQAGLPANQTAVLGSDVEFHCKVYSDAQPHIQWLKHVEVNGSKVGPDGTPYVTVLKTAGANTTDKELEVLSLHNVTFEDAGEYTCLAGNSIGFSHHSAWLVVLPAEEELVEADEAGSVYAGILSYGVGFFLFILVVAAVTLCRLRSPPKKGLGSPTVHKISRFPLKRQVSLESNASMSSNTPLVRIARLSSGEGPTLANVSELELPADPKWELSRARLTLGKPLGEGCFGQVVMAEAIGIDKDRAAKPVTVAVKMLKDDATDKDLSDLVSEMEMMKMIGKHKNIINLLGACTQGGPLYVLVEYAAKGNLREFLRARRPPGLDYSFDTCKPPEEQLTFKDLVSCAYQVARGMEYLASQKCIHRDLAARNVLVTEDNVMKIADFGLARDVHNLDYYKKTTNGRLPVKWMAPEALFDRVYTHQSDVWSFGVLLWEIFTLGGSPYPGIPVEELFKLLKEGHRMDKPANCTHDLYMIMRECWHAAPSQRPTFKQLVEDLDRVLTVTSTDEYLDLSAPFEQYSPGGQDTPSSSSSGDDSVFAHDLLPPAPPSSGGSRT
# Fibroblast growth factor receptor 4, sequence (P22455 whole entry): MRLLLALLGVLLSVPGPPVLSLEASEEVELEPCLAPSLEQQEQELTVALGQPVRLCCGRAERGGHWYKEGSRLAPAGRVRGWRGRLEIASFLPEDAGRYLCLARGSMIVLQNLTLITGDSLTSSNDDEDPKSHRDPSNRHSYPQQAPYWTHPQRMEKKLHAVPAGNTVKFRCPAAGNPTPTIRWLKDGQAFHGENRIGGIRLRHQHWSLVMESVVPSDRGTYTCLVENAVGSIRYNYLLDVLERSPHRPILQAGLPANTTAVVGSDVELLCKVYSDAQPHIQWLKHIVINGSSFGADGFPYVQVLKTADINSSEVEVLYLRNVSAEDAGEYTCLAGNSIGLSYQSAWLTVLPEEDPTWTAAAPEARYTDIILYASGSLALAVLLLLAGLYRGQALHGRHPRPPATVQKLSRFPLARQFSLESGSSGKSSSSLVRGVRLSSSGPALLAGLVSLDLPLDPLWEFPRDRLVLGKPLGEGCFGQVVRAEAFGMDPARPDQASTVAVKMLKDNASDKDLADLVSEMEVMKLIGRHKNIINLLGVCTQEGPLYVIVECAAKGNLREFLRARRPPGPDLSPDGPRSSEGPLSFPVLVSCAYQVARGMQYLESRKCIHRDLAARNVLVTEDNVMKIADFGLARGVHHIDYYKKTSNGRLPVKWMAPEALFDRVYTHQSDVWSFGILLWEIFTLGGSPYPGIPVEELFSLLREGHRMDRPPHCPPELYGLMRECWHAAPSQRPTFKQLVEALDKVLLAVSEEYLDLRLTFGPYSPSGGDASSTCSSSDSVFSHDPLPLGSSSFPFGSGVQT
# Vascular endothelial growth factor receptor 1, sequence (P17948 whole entry): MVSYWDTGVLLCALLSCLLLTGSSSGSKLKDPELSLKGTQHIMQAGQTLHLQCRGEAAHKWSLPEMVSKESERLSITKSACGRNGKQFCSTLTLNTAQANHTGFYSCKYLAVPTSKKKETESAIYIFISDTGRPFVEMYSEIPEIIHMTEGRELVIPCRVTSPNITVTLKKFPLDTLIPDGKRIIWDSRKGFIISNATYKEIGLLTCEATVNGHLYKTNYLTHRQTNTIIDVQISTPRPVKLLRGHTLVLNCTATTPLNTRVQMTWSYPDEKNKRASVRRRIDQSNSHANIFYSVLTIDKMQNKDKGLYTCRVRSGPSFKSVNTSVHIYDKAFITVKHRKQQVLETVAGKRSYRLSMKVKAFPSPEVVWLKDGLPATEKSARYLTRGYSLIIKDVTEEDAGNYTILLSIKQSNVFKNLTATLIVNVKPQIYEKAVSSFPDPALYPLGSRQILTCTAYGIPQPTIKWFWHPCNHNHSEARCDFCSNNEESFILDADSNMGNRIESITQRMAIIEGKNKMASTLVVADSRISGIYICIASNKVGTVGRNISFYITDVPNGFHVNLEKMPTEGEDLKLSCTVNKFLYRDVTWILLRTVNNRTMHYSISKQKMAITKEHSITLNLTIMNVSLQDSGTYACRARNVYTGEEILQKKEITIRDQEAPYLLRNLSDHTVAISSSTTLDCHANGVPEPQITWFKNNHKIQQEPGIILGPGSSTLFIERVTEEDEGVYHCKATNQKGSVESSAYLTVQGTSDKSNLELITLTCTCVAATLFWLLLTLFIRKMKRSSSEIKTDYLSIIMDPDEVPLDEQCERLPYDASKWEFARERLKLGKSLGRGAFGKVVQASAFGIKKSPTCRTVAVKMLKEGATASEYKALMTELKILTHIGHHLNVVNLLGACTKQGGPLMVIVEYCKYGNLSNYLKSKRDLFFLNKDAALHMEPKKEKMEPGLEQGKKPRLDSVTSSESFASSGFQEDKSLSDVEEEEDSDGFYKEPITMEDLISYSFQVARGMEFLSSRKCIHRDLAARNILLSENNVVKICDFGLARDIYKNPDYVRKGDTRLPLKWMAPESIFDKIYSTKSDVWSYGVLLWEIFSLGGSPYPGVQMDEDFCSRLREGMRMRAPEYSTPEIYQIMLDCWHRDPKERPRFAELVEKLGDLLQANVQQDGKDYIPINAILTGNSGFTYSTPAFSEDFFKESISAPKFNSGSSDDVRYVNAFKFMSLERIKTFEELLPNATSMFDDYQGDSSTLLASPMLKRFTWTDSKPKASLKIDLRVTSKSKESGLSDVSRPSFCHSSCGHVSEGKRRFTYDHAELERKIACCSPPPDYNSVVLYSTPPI
smiles,measurement,setting,value
CCN1c2ncccc2C(=O)Nc2c(C)ccnc21,Ki,[1],10 nM
same,IC50,[2],30 nM
COc1ccc2c(O[C@@H]3C[C@H]4C(=O)N[C@]5(C(=O)NS(=O)(=O)C6CC6)C[C@H]5/C=C\CCCCN(C)C(=O)[C@@H]4C3)cc(-c3nc(C(C)C)cs3)nc2c1C,IC50,[3],8 nM
same,Ki,[4],0.5 nM
same,Ki,[5],0.4 nM
COc1cc2cc(c1Cl)N(C)C(=O)C[C@H](OC(=O)[C@@H](C)N(C)C(=O)CCS)[C@]1(C)O[C@H]1[C@H](C)[C@@H]1C[C@@](O)(NC(=O)O1)[C@H](OC)/C=C/C=C(\C)C2,IC50,[6],1.1 nM
CC(C)[C@H](N)C(=O)N[C@H](C(=O)O)[C@@H]1C[C@H](NC(=N)N)[C@@H]2CN21 (some centres not stated),CD50,[7],7.6 mg/kg
same,CD50,[8],10 mg/kg
same,CD50,[9],11 mg/kg
CCn1c(-c2cc(N3CCN(C)CC3)cnc2[C@H](C)OC)c2c3cc(ccc31)-c1csc(n1)C[C@H](NC(=O)[C@H]1C[C@@H]1C)C(=O)N1CCC[C@H](N1)C(=O)OCC(C)(C)C2,IC50,[10],1.2 nM
same,IC50,[11],1.4 nM
COc1ccc2c(O[C@@H]3C[C@H]4C(=O)N[C@]5(C(=O)O)C[C@H]5/C=C/CCCCC[C@H](NC(=O)OC5CCCC5)C(=O)N4C3)cc(-c3csc(NC(C)C)n3)cc2c1,IC50,[3],3 nM
same,Ki,[4],0.3 nM
same,Ki,[5],3 nM
CCCC(NC(=O)[C@H](CC(C)C)NC(=O)[C@@H](NC(=O)OC(C)(C)C)C1CCCCC1)C(=O)C(=O)NCC(=O)N[C@H](C(N)=O)c1ccccc1 (some centres not stated) (Boc-[Chg]L[X1]G[Phg]-NH2),Ki,[1],66 nM
same,EC90,[12],200 nM
CC[C@@H]1C(=O)N(C)c2cnc(Nc3ccc(C(=O)NC4CCN(C)CC4)cc3OC)nc2N1C1CCCC1 [BI-2536],half-life,[13],< 50 h
same,Vd,[14],750 L
CC(C)(C)NC(=O)N[C@H](C(=O)N1C[C@H]2[C@@H]([C@H]1C(=O)NC(CC1CCC1)C(=O)C(N)=O)C2(C)C)C(C)(C)C (some centres not stated) [BOCEPREVIR],Ki,[1],14 nM
same,EC90,[12],350 nM
CC(C)C[C@H](NC(=O)[C@H](CCc1ccccc1)NC(=O)CN1CCOCC1)C(=O)N[C@@H](Cc1ccccc1)C(=O)N[C@@H](CC(C)C)C(=O)[C@@]1(C)CO1 [CARFILZOMIB],IC50,[15],10.8 nM
same,IC50,[16],22.4 nM
same,IC50,[17],6 nM
O=C(O)c1cn(C2CC2)c2cc(N3CCNCC3)c(F)cc2c1=O [CIPROFLOXACIN],MIC,[18],< 1 µg/mL
same,MIC,[19],< 1 µg/mL
same,MIC,[20],0.12 µg/mL
C[C@]12C[C@H]3S[C@H]3C[C@@H]1CC[C@@H]1[C@@H]2CC[C@]2(C)[C@@H](O)CC[C@@H]12 [EPITIOSTANOL],IC50,[21],30 nM
C/C1=C/C[C@@H](/C(C)=C/c2csc(C)n2)OC(=O)C[C@H](O)C(C)(C)C(=O)[C@H](C)[C@@H](O)[C@@H](C)CCC1 [EPOTHILONE D],IC50,[22],46 nM
C/C(=C\c1csc(C)n1)[C@@H]1C[C@@H]2O[C@]2(C)CCC[C@H](C)[C@H](O)[C@@H](C)C(=O)C(C)(C)[C@@H](O)CC(=O)N1 [IXABEPILONE],IC50,[22],10 nM
COc1cc2nccc(Oc3ccc(NC(=O)NC4CC4)c(Cl)c3)c2cc1C(N)=O [LENVATINIB],IC50,[23],2 nM
same,IC50,[24],2 nM
same,IC50,[25],27 nM
same,IC50,[26],27 nM
same,IC50,[27],27 nM
same,IC50,[28],29 nM
CO[C@@]12[C@H](COC(N)=O)C3=C(C(=O)C(C)=C(N)C3=O)N1C[C@@H]1N[C@@H]12 [MITOMYCIN],IC50,[29],1500 nM
same,IC50,[30],300 nM
same,IC50,[31],287 nM
C/C(=C\C(=O)OCCCCCCCCC(=O)O)C[C@@H]1OC[C@H](C[C@@H]2O[C@H]2[C@@H](C)[C@H](C)O)[C@@H](O)[C@H]1O [MUPIROCIN],MIC,[32],0.1 µg/mL
same,IC50,[33],900 nM
CCn1cc(C(=O)O)c(=O)c2cc(F)c(N3CCNCC3)cc21 [NORFLOXACIN],MIC,[34],≤ 0.06 µg/mL
same,MIC,[35],≤ 0.06 µg/mL
same,MIC,[36],≤ 0.06 µg/mL
same,MIC,[37],≤ 0.06 µg/mL
COC[C@H](NC(=O)c1cnc(C)s1)C(=O)N[C@@H](COC)C(=O)N[C@@H](Cc1ccccc1)C(=O)[C@@]1(C)CO1 [OPROZOMIB],IC50,[15],50 nM
same,IC50,[16],79 nM
same,IC50,[17],36 nM
C/C(=C\c1csc(C)n1)[C@@H]1C[C@@H]2O[C@]2(C)CCC[C@H](C)[C@H](O)[C@@H](C)C(=O)C(C)(C)[C@@H](O)CC(=O)O1 [PATUPILONE],IC50,[38],1.8 nM
same,IC50,[22],10 nM
CC[C@@H]1C(=O)N(C)c2cnc(Nc3ccc(C(=O)N[C@H]4CC[C@H](N5CCN(CC6CC6)CC5)CC4)cc3OC)nc2N1C(C)C [VOLASERTIB],half-life,[13],> 110 h
same,Vd,[14],> 4000 L
CC1=C(CO)C(=O)O[C@@H]([C@@H](C)[C@H]2CC[C@H]3[C@@H]4C[C@H]5O[C@]56[C@@H](O)C=CC(=O)[C@]6(C)[C@H]4CC[C@]23C)C1 [WITHAFERIN A],IC50,[39],250 nM
